Test results as given in ChEMBL document CHEMBL4507267 (2021).

Experiments:
[1] = target: AP2-associated protein kinase 1 (Homo sapiens) (UniProt Q2M2I8); conditions: Compound concentration 1000.0 nM
[2] = system: Tyrosine-protein kinase ABL1 (Homo sapiens), P00519 [F317I]; conditions: Compound concentration 1000.0 nM
[3] = target: Tyrosine-protein kinase ABL1 (Homo sapiens) (UniProt P00519); conditions: Compound concentration 1000.0 nM
[4] = target: Activin receptor type-1 (Homo sapiens) (UniProt Q04771); conditions: Compound concentration 1000.0 nM
[5] = target: Atypical kinase COQ8A, mitochondrial (Homo sapiens) (UniProt Q8NI60); conditions: Compound concentration 1000.0 nM
[6] = target: ALK tyrosine kinase receptor (Homo sapiens) (UniProt Q9UM73); conditions: Compound concentration 1000.0 nM
[7] = target: Mitogen-activated protein kinase kinase kinase 6 (Homo sapiens) (UniProt O95382); conditions: Compound concentration 1000.0 nM
Mitogen-activated protein kinase kinase kinase 6 (Homo sapiens), sequence (O95382 whole entry): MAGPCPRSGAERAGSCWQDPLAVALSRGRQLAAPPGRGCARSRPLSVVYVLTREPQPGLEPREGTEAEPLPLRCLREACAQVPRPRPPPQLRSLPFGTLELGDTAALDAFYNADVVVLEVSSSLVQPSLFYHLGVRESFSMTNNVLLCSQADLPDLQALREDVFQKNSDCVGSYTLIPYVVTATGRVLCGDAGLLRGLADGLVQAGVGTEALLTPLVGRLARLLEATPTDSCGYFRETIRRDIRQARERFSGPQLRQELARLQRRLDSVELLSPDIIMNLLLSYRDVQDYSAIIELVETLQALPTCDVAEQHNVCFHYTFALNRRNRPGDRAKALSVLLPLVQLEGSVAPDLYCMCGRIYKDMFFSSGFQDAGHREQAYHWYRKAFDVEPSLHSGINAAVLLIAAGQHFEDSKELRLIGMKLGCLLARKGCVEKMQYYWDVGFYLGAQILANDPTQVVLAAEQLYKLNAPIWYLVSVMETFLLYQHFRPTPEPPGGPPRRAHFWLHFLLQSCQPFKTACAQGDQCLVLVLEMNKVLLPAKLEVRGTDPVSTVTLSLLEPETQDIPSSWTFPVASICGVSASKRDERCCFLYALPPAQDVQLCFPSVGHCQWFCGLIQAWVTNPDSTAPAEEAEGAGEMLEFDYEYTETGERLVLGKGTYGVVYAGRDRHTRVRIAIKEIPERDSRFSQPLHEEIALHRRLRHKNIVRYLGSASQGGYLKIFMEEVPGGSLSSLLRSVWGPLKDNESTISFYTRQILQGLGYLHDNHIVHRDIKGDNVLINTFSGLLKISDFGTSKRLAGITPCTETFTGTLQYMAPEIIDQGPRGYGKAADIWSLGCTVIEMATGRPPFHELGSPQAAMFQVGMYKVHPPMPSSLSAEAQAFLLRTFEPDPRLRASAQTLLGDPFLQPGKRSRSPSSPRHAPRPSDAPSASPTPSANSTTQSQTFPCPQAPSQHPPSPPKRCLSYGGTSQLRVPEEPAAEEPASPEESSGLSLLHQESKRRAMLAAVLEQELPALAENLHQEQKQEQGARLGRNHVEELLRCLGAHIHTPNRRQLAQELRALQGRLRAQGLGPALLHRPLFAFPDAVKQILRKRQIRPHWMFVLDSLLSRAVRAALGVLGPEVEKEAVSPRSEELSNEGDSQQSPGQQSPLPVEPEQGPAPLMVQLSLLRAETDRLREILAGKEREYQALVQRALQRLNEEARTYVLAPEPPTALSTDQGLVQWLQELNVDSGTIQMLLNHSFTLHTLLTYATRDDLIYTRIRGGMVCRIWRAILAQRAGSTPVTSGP

[8] = target: Aurora kinase B (Homo sapiens) (UniProt Q96GD4); conditions: Compound concentration 1000.0 nM
[9] = target: Calcium/calmodulin-dependent protein kinase type 1G (Homo sapiens) (UniProt Q96NX5); conditions: Compound concentration 1000.0 nM
[10] = target: Cyclin-dependent kinase 4 (Homo sapiens) (UniProt P11802); conditions: Compound concentration 1000.0 nM
[11] = target: Cyclin-dependent kinase-like 1 (Homo sapiens) (UniProt Q00532); conditions: Compound concentration 1000.0 nM
[12] = target: Death-associated protein kinase 2 (Homo sapiens) (UniProt Q9UIK4); conditions: Compound concentration 1000.0 nM
Death-associated protein kinase 2 (Homo sapiens), sequence (Q9UIK4 whole entry, looked up): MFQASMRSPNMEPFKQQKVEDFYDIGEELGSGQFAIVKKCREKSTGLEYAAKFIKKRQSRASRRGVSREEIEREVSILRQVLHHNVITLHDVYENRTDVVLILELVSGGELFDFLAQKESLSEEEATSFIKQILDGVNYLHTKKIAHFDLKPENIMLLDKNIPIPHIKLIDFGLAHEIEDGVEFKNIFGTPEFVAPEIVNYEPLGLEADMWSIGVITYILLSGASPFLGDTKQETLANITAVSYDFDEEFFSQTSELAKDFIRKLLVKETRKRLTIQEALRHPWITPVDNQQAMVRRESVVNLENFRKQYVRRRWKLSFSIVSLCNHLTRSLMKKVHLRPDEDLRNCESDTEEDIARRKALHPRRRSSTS

[13] = target: Serine/threonine-protein kinase DCLK2 (Homo sapiens) (UniProt Q8N568); conditions: Compound concentration 1000.0 nM
[14] = target: Serine/threonine-protein kinase DCLK3 (Homo sapiens) (UniProt Q9C098); conditions: Compound concentration 1000.0 nM
[15] = target: Mitogen-activated protein kinase 4 (Homo sapiens) (UniProt P31152); conditions: Compound concentration 1000.0 nM
Mitogen-activated protein kinase 4 (Homo sapiens), sequence (P31152 whole entry): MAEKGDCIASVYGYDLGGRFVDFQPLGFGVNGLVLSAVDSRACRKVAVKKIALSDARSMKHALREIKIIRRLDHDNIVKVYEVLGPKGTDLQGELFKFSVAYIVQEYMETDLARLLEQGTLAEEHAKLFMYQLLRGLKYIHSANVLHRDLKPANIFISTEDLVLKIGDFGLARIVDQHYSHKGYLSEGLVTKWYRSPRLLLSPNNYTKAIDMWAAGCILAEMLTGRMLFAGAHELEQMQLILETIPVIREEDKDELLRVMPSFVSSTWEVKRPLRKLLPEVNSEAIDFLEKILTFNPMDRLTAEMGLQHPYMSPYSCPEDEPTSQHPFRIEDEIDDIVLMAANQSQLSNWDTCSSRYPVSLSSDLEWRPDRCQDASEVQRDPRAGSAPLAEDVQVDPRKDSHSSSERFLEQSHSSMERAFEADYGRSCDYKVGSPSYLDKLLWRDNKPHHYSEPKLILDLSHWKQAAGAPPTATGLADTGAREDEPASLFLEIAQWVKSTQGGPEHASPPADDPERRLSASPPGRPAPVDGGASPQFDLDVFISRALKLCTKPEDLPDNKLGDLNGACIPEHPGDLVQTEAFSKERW

[16] = target: Serine/threonine-protein kinase/endoribonuclease IRE1 (Homo sapiens) (UniProt O75460); conditions: Compound concentration 1000.0 nM
[17] = target: Tyrosine-protein kinase Fes/Fps (Homo sapiens) (UniProt P07332); conditions: Compound concentration 1000.0 nM
[18] = system: Receptor-type tyrosine-protein kinase FLT3 (Homo sapiens), P36888 [D835Y]; conditions: Compound concentration 1000.0 nM
[19] = target: Interleukin-1 receptor-associated kinase 3 (Homo sapiens) (UniProt Q9Y616); conditions: Compound concentration 1000.0 nM
[20] = target: Serine/threonine-protein kinase LATS2 (Homo sapiens) (UniProt Q9NRM7); conditions: Compound concentration 1000.0 nM
[21] = target: Mitogen-activated protein kinase kinase kinase 1 (Homo sapiens) (UniProt Q13233); conditions: Compound concentration 1000.0 nM
[22] = target: Dual specificity mitogen-activated protein kinase kinase 6 (Homo sapiens) (UniProt P52564); conditions: Compound concentration 1000.0 nM
[23] = target: Hepatocyte growth factor receptor (Homo sapiens) (UniProt P08581); conditions: Compound concentration 1000.0 nM
[24] = system: Hepatocyte growth factor receptor (Homo sapiens), P08581 [Y1235D]; conditions: Compound concentration 1000.0 nM
[25] = target: Serine/threonine-protein kinase 26 (Homo sapiens) (UniProt Q9P289); conditions: Compound concentration 1000.0 nM
[26] = target: Serine/threonine-protein kinase mTOR (Homo sapiens) (UniProt P42345); conditions: Compound concentration 1000.0 nM
[27] = target: Serine/threonine-protein kinase Nek9 (Homo sapiens) (UniProt Q8TD19); conditions: Compound concentration 1000.0 nM
Serine/threonine-protein kinase Nek9 (Homo sapiens), sequence (Q8TD19 whole entry): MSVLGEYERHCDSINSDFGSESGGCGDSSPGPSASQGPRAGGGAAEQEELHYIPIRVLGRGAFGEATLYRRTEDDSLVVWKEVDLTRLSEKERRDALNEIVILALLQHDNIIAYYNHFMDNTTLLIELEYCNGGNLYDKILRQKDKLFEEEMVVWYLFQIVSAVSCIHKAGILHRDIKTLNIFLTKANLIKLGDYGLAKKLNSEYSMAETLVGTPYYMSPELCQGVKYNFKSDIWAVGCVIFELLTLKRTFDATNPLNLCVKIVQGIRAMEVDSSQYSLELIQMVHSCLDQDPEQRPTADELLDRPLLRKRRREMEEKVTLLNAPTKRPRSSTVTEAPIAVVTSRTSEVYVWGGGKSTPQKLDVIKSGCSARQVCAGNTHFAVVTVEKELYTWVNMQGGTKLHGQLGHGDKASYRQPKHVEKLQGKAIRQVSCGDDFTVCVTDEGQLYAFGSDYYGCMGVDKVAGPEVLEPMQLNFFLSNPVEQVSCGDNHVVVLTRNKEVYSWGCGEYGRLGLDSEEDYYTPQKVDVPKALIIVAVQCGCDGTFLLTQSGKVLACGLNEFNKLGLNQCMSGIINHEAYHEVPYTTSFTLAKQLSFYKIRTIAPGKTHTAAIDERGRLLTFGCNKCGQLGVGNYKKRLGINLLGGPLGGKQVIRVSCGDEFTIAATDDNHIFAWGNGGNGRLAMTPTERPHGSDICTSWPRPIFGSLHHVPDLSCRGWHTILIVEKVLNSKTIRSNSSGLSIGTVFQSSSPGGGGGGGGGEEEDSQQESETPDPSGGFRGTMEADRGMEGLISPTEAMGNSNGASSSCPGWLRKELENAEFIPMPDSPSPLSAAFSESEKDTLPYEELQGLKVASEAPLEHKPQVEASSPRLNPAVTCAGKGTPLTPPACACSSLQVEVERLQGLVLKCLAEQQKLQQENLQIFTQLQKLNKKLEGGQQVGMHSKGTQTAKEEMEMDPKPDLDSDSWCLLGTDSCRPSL

[28] = target: Mitogen-activated protein kinase 14 (Homo sapiens) (UniProt Q16539); conditions: Compound concentration 1000.0 nM
[29] = target: Cyclin-dependent kinase 2 homolog (Plasmodium falciparum (isolate 3D7)) (UniProt P61075); conditions: Compound concentration 1000.0 nM
[30] = target: Phosphatidylinositol 4,5-bisphosphate 3-kinase catalytic subunit alpha isoform (Homo sapiens) (UniProt P42336); conditions: Compound concentration 1000.0 nM
Phosphatidylinositol 4,5-bisphosphate 3-kinase catalytic subunit alpha isoform (Homo sapiens), sequence (P42336 whole entry, canonical isoform): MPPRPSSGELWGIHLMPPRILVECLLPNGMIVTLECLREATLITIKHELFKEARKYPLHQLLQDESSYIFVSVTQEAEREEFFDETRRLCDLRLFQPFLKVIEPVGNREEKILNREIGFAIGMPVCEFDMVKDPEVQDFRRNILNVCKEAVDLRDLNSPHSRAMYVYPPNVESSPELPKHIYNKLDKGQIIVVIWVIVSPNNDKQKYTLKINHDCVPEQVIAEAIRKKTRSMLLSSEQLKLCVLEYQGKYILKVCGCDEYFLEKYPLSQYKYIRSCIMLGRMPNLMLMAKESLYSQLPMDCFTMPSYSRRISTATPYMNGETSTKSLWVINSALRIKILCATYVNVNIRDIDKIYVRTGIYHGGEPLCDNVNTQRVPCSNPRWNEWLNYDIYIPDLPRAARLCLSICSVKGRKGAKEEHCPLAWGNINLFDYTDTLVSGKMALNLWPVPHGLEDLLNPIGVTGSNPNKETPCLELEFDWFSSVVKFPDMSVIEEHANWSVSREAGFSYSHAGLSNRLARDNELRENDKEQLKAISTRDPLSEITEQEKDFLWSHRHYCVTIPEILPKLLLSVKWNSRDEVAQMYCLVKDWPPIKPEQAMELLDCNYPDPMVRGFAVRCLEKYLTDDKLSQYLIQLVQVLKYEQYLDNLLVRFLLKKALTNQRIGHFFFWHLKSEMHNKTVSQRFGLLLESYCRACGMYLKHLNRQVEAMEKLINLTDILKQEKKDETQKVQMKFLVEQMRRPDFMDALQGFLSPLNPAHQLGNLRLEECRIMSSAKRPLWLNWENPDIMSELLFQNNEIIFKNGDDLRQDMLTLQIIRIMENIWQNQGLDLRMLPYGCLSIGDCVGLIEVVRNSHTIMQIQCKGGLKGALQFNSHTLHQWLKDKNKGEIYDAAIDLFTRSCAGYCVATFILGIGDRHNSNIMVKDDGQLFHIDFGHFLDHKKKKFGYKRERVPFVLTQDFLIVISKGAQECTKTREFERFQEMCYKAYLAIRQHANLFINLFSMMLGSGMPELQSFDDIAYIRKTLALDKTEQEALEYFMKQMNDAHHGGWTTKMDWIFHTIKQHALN

[31] = system: Phosphatidylinositol 4,5-bisphosphate 3-kinase catalytic subunit alpha isoform (Homo sapiens), P42336 [E545K]; conditions: Compound concentration 1000.0 nM
Phosphatidylinositol 4,5-bisphosphate 3-kinase catalytic subunit alpha isoform (Homo sapiens), P42336 [E545K], sequence (P42336 whole entry E545K, canonical isoform): as the sequence (P42336 whole entry, canonical isoform) above, with E545K counted along it

[32] = target: cAMP-dependent protein kinase catalytic subunit beta (Homo sapiens) (UniProt P22694); conditions: Compound concentration 1000.0 nM
[33] = target: Serine/threonine-protein kinase N2 (Homo sapiens) (UniProt Q16513); conditions: Compound concentration 1000.0 nM
[34] = target: Serine/threonine-protein kinase SIK3 (Homo sapiens) (UniProt Q9Y2K2); conditions: Compound concentration 1000.0 nM
[35] = target: Ribosomal protein S6 kinase alpha-6 (Homo sapiens) (UniProt Q9UK32); conditions: Compound concentration 1000.0 nM
[36] = target: SRSF protein kinase 3 (Homo sapiens) (UniProt Q9UPE1); conditions: Compound concentration 1000.0 nM
[37] = target: Serine/threonine-protein kinase 16 (Homo sapiens) (UniProt O75716); conditions: Compound concentration 1000.0 nM
[38] = target: Mitogen-activated protein kinase kinase kinase 7 (Homo sapiens) (UniProt O43318); conditions: Compound concentration 1000.0 nM
[39] = target: Angiopoietin-1 receptor (Homo sapiens) (UniProt Q02763); conditions: Compound concentration 1000.0 nM
[40] = target: Serine/threonine-protein kinase tousled-like 1 (Homo sapiens) (UniProt Q9UKI8); conditions: Compound concentration 1000.0 nM
[41] = target: Tyrosine-protein kinase ZAP-70 (Homo sapiens) (UniProt P43403); conditions: Compound concentration 1000.0 nM
Tyrosine-protein kinase ZAP-70 (Homo sapiens), sequence (P43403 whole entry): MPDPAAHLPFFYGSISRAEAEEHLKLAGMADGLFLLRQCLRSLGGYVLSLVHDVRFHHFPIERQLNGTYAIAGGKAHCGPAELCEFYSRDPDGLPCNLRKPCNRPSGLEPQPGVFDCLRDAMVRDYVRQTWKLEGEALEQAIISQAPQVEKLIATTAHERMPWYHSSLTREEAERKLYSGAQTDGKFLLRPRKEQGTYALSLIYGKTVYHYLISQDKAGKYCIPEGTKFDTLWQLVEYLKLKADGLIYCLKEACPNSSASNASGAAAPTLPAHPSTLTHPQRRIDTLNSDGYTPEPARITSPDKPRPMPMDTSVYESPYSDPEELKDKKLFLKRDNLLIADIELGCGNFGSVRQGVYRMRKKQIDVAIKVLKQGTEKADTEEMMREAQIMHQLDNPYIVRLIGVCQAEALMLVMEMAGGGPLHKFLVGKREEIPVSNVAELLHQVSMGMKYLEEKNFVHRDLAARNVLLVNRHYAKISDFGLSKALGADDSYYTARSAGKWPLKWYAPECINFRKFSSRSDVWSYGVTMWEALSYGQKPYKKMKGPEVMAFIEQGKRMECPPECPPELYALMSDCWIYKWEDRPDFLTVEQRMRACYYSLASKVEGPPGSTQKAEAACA

[42] = target: 5-hydroxytryptamine receptor 1E (Homo sapiens) (UniProt P28566); conditions: Compound concentration 10.0 uM
[43] = target: GABA-A receptor; anion channel (Rattus norvegicus) (UniProt O09028+P15431+P18506+P18508+P19969+P20236+P23574+P23576+P28471+P28473+P30191+P62813+P63079+P63138+Q91ZM7+Q9ES14); conditions: Compound concentration 10.0 uM
[44] = target: Beta-1 adrenergic receptor (Homo sapiens) (UniProt P08588); conditions: Compound concentration 10.0 uM

Cc1c(NC(=O)c2cc(C(N)=O)nc3cc(F)ccc23)c(C(F)(F)F)nn1Cc1ccc(C(C)(C)C)cc1 [BAY-588]
inactive: residual activity [1] 83% | residual activity [2] 100% | residual activity [3] 96% | residual activity [4] 100% | residual activity [5] 85% | residual activity [6] 96% | residual activity [7] 100% | residual activity [8] 100% | residual activity [9] 100% | residual activity [10] 100% | residual activity [11] 100% | residual activity [12] 76% | residual activity [13] 83% | residual activity [14] 100% | residual activity [15] 100% | residual activity [16] 89% | residual activity [17] 100% | residual activity [18] 100% | residual activity [19] 100% | residual activity [20] 84% | residual activity [21] 100% | residual activity [22] 92% | residual activity [23] 100% | residual activity [24] 84% | residual activity [25] 100% | residual activity [26] 86% | residual activity [27] 100% | residual activity [28] 100% | residual activity [29] 100% | residual activity [30] 100% | residual activity [31] 100% | residual activity [32] 100% | residual activity [33] 100% | residual activity [34] 91% | residual activity [35] 100% | residual activity [36] 100% | residual activity [37] 83% | residual activity [38] 100% | residual activity [39] 94% | residual activity [40] 100% | residual activity [41] 100% | inhibition [42] 7.98% | inhibition [43] 9.54% | inhibition [44] 21.2%

Cc1c(NC(=O)c2cc(C(N)=O)nc3cc(F)ccc23)c(C(F)(F)F)nn1Cc1ccc(C#N)cc1 [BAY-876]
inactive: residual activity [1] 79% | residual activity [2] 75% | residual activity [3] 84% | residual activity [4] 87% | residual activity [5] 82% | residual activity [6] 87% | residual activity [7] 75% | residual activity [8] 72% | residual activity [9] 75% | residual activity [10] 100% | residual activity [11] 82% | residual activity [12] 99% | residual activity [13] 82% | residual activity [14] 92% | residual activity [15] 76% | residual activity [16] 78% | residual activity [17] 83% | residual activity [18] 92% | residual activity [19] 94% | residual activity [20] 72% | residual activity [21] 65% | residual activity [22] 100% | residual activity [23] 100% | residual activity [24] 100% | residual activity [25] 95% | residual activity [26] 93% | residual activity [27] 95% | residual activity [28] 91% | residual activity [29] 91% | residual activity [30] 100% | residual activity [31] 73% | residual activity [32] 93% | residual activity [33] 81% | residual activity [34] 81% | residual activity [35] 78% | residual activity [36] 100% | residual activity [37] 100% | residual activity [38] 68% | residual activity [39] 92% | residual activity [40] 79% | residual activity [41] 84% | inhibition [42] 4% | inhibition [43] 2.64% | inhibition [44] 28.5%
